Experimental data: US20080031868A1, “HUMAN LYSOZYME MEDICINE, ITS MANUFACTURING METHOD AND APPLICATION THEREOF” (priority 2005, published 2008)

What was measured:
[1] = system: drug-resistant suppurative streptococcus; assay: Acute or chronic suppurative faucitis model of mice, upper respiratory tract infection; format: in vivo
From the text: B. Preparation of the acute or chronic suppurative faucitis model of little mice infected by the drug-resistant suppurative streptococcus with the upper respiratory tract:
(§1) 10 healthy Kunming mice (18˜22 g), male and female, were infected by the drug-resistant suppurative streptococcus with the upper respiratory tract in way of spraying which induced the acute or chronic suppurative faucitis of mice, and then promptly treated with aerosol (powder or liquid) at the dose of 30000 u/ml/20 g and give medicines three times a day. Observe for one week after infecting and record the efficient rate of mice. […]

[2] = system: drug-resistant suppurative streptococcus; assay: Amygdalitis model of mice, upper respiratory tract infection; format: in vivo
From the text: C. The preparation of the amygdalitis model of mice infected by the drug-resistant suppurative streptococcus with the upper respiratory tract:
as §1, with “female,” for “female, were”, “induce” for “induced”, “amygdalitis” for “acute or chronic suppurative faucitis”, “mice,” for “mice, and”, “suck” for “treated with”, “according to” for “at the dose of”

[3] = system: bronchus pneumonia of mice by sucking the hydrochloric acid; assay: Bronchus pneumonia (bronchus lung injury) of mice by sucking atomized hydrochloric acid; format: in vivo, Kunming mice
Procedure: D. The effect of human lysozyme to bronchus pneumonia of mice by sucking the hydrochloric acid:
50 mice were equally divided to 5 groups at random, selecting randomly 4 groups among them to make the model of the mice atomized hydrochloric acid.
Each batch of 10 mice was put in Glass desiccator which equipped the self-made atomizer contained 1 N HCI solution. The principle of electronic supra-frequency shaker was used to atomizate hydrochloric acid, then it was inspired for 1 hour by mice to make model of inspiring bronchus lung injury. Its mechanism is that inspiring acidoid can cause adhesion of leucocyte and increasing expression of ICAM-1 and permeability of endotheliocyte and cellula epithelialis to protein, thereby to cause pneumochysis. Otherwise inspiring acidoid can cause the release of phlegmonosis cytokine. Assembling in lung and reciprocal activation of these cytokine and neutrophilic leukocyte can induce cell adhesion and tissue damage.
40 mice models were gathered and then randomly divided to 4 groups. 3 groups were treated with drug, 1 group were treated as model group.
The concentration of recombinant human lysozyme medicine was set at 15000 u/ml in clinical atomization therapy. The dose was 15000 u per time once daily, I.e 0.5 mg per time. The dose was 1.3×10^−3mg a mice (calculated by weight of 20 g). Human ventilatory capacity (9000 ml/min) corresponded with 375 times of mice ventilatory capacity (24 ml/min). Human single dose (0.5 mg/70 kg) corresponded with 384 times of mice dose (1.3×10^−3 mg/20 g). Two folds between ventilatory capacity and single dose were closed, so clinical human dose was used for atomization therapy of mice. Availability of clinical inspiring lysozyme atomized was higher than breathing amount of mice by itself in atomizer. To ensure the breathing amount of lysozyme, the breathing time were extended for 1 hour. Based on 0.5 mg/ml as low dose, the concentration of 1.0 mg/ml and 2.0 mg/ml were set respectively as middle and high dose. The mice were put into the glass desiccator and then treated with human lysozyme atomized in the compression sprayer (PARL.BOY) once daily, and continued 5-10 days (shown in FIG. 2).
As atomization was treated to the 5th and 10th day, half animals (5) of every group were dissected, then the lung tissues were weighed and the lung coefficients were calculated according to the weight. Pathological changes of appearance and the lung tissue were observed respectively by naked eye and pathological section.

HELA cell = assay: Toxicity to HELA cell (CPE, Reed-Muench)
Procedure: 1. Determination of the Toxicity of Recombinant Human Lysozyme to HELA Cell:
HELA cells were seeded on 96-well culture plates at the concentration of 400,000/mi and grown at 37° C. in a 5% CO2 incubator for 2 hours. 100 μl recombinant human lysozyme which were double-diluted from 6000 ug/ml to 11.7 ug/ml and positive reference medicine which were double-diluted from 6000 ug/ml to 11.7 ug/ml were respectively added to 3 wells per concentration. At the same time the reference cells were cultivated at 37° C. in a 5% CO2 incubator for 6 days. Inverted microscope was used everyday to observe the cytopathic effect (CPE). The cytopathic effect under 25% was recorded as “+”, the cytopathic effect under 26%˜50% was recorded as “++”, the cytopathic effect under 51%˜75% was recorded as “+++” and the cytopathic effect under 76%˜100% was recorded as “++++”. Drug median toxic dose (TD50) and minimum toxic dose (TD0) were calculated by using Reed-Muench method.

No. 04 Coronavirus [4] = assay: Inhibition on No. 04 Coronavirus in HELA cells (CPE method); format: cell-based
Procedure: HELA cells were seeded on 96-well cultivation plates at the concentration of 400,000/ml and grown to monolayer at 37° C. in 5% CO2 incubator for 24 hours. After removal of cultivation liquid, coronavirus liquid were added to HELA cells and absorbed at 37° C. in 5% CO2 incubator for 2 hours. […] At the same time reference cells and reference virous were cultivated at 37° C. in 5% CO2 incubator for 5 to 7 days. Inverted microscope was used everyday to observe the cytopathic effect (CPE) of virus. The determination were ended according to the appearance of “+++-++++”. […] The determination was repeated three times.

No. 04 Coronavirus [5] = assay: organism not typed; format: cell-based
Procedure: HELA cells were seeded on 96-well cultivation plates at the concentration of 400,000/ml and grown to monolayer at 37° C. in 5% CO2 incubator for 24 hours. […] Then 100 TCID50coronavirus liquid were added to HELA cells. At the same time reference cell and reference virous were cultivated at 37° C. in 5% CO2 incubator for 5 to 7 days. At the same time normal cell reference and virous reference were cultivated at 37° C. in 5% CO2 incubator for 5 to 7 days. Inverted microscope was used everyday to observe the cytopathic effect (CPE) of virus. The determination were ended according to the appearance of “+++-++++”. […] The determination was repeated three times.

[6] = 10 mice, aerosol 30000 u/ml/20 g three times a day, one week
[7] = atomized solution and inhalation
[8] = high dosage 2.0 mg/ml, atomization treated for 5 days
[9] = high dosage 2.0 mg/ml, atomization treated for 10 days
[10] = low dosage 0.5 mg/ml, atomization treated for 5 days
[11] = low dosage 0.5 mg/ml, atomization treated for 10 days
[12] = median dosage 1.0 mg/ml, atomization treated for 5 days
[13] = median dosage 1.0 mg/ml, atomization treated for 10 days
[14] = inhibition: drug added after virus absorbed 2 hours, mean of thrice test
[15] = prevention: drug absorbed 2.5 hours before 100 TCID50 virus, mean of thrice test

## Human lysozyme: gene recombinant Human Lysozyme (HLZ), active unit 30000 u/mg, batch number 020110; given atomized / as aerosol
[1]; [6]
  Efficient %: 100%
  Healing: 8
  Invalid: 0
  Valid: 2
[1]; [7]
  curative effect to acute or chronic suppurative faucitis of mice: obvious curative effect
[2]; [6]
  Efficient %: 100%
  Healing: 8
  Invalid: 0
  Valid: 2
[2]; [7]
  curative effect to the amygdalitis of mice: obvious curative effect
[3]; atomization
  effect on mice model of bronchus lung injury caused by inspiring hydrochloric acid: validated effective
[3]; [8]
  Lung coefficient (g/g) × 10^−3: 9.1 ± 1.00 (g/g) × 10^−3
  Weight: 29.4 ± 3.3 g
[3]; [9]
  Lung coefficient (g/g) × 10^−3: 8.32 ± 1.84 (g/g) × 10^−3
  Weight: 31.2 ± 2.0 g
[3]; high dosage group, 5 days
  pathohistology observation of bronchiole and bronchia in lung: little infiltration of a few monocytes and lymphocytes in bronchus between lobules, and a few phlegmasia cells and secretion in part bronchioles
  pathological section: animals changed pathologically: 2/5
  pathological section: animals normal: 3/5
[3]; [10]
  Lung coefficient (g/g) × 10^−3: 7.30 ± 0.43 (g/g) × 10^−3
  Weight: 29.6 ± 1.6 g
[3]; [11]
  Lung coefficient (g/g) × 10^−3: 7.10 ± 0.61 (g/g) × 10^−3
  Weight: 30.7 ± 3.0 g
[3]; low dosage group, 5 days
  pathohistology observation of bronchiole and bronchia in lung: two spalling of epithelium mucosae in bronchioles and bronchia of one lung tissue, a little erythrocytes in bronchiole lumina of another lung tissue, and normality in the others
  pathological section: animals kept normally: 4/5
[3]; [12]
  Lung coefficient (g/g) × 10^−3: 7.8 ± 0.65 (g/g) × 10^−3
  Weight: 29.2 ± 2.4 g
[3]; [13]
  Lung coefficient (g/g) × 10^−3: 8.30 ± 1.40 (g/g) × 10^−3
  Weight: 30.6 ± 2.2 g
[3]; median dosage group, 5 days
  pathohistology observation of bronchiole and bronchia in lung: little infiltration of a few monocytes and lymphocytes around part bronchioles, intactness of upper strata wall of most bronchioles tunica mucosa, spalling of a few epithelium mucosae
  pathological section: animals kept normally: 5/5
HELA cell
  median toxic dose (TD50): 1500 ± 0 µg/mL
  minimum toxic dose (TD0): 750 ± 0 µg/mL
No. 04 Coronavirus [4]; inhibition: drug added after virus
  therapeutic index (TI): 16
No. 04 Coronavirus [4]; [14]
  median inhibitory concentration (IC50): 23.4 ± 0 µg/mL
  minimum inhibitory concentration (MIC): 46.8 ± 0 µg/mL
No. 04 Coronavirus [5]; [15]
  median inhibitory concentration (IC50): 5.9 ± 0 µg/mL
  minimum inhibitory concentration (MIC): 11.7 ± 0 µg/mL
No. 04 Coronavirus [5]; prevention: drug before virus
  therapeutic index (TI): 64
